Experimental data: patent publication US7378265B2 (priority 1998, dated 2008)

Test system: recombinant retroviruses expressing the LacZ marker gene
Assay type: cell-based, retrovirus

OC[C@H]1O[C@@H]2O[C@H]3[C@H](O)[C@@H](O)[C@@H](O[C@H]4[C@H](O)[C@@H](O)[C@@H](O[C@H]5[C@H](O)[C@@H](O)[C@@H](O[C@H]6[C@H](O)[C@@H](O)[C@@H](O[C@H]7[C@H](O)[C@@H](O)[C@@H](O[C@H]8[C@H](O)[C@@H](O)[C@@H](O[C@H]1[C@H](O)[C@H]2O)O[C@@H]8CO)O[C@@H]7CO)O[C@@H]6CO)O[C@@H]5CO)O[C@@H]4CO)O[C@@H]3CO [β-cyclodextrin]
enhancement of the retroviral inactivation, additional factor: 10
